Measured values as given in patent US12344610B2, “APOL1 inhibitors and methods of use” (Maze Therapeutics, Inc., priority 2022, dated 2025).

Key:
Assay type in all cases: cell-based
[1] = test system: Trypanosoma brucei Lister 427 VSG221 with APOL1 G0 recombinant protein; test: APOL1 G0 trypanosome cell rescue assay (Example B5); settings: Trypanosoma brucei, 20 h, read-out: APOL1 G0 Trypanosome Rescue EC50, Trypanosoma brucei Lister 427 VSG221 with APOL1 G0 recombinant protein, 20 hours, CellTiter-Glo; geometric mean of at least 2 assay runs; † = single assay run
In short: (§1)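 Recombinant APOL1 protein, dispensed from a 2 μg/mL stock, and 250 T. brucei per well were co-incubated with test compound (0.4% DMSO) for 20 h. Viability: CellTiter-Glo luminescence.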

[2] = test system: HEK293 cells overexpressing APOL1 G2; test: APOL1 G2 HEK293 cell rescue assay (reversal of cell death caused by overexpression of APOL1); settings: Homo sapiens, HEK293, HEK293 overexpressing APOL1 G2; geometric mean of at least 2 assay runs; † = single assay run
In short: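 Each compound tested in duplicate wells on one plate per run, with values usually the geometric mean across at least two runs on different days, occasionally from one run only. Read-out: concentration giving half-maximal rescue of APOL1 G2 overexpression-induced death of HEK293 cells.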

[3] = test system: Trypanosoma brucei Lister 427 VSG221 with APOL1 G1 recombinant protein; test: APOL1 G1 trypanosome cell rescue assay (Example B5); settings: Trypanosoma brucei, 20 h, read-out: APOL1 G1 Trypanosome Rescue EC50, Trypanosoma brucei Lister 427 VSG221 with APOL1 G1 recombinant protein, 20 hours, CellTiter-Glo; geometric mean of at least 2 assay runs; † = single assay run
In short: as §1

## O=C(c1ccc(OCCN2CCC3(CC2)C(=O)Nc2ccc(Cl)cc23)cc1C(F)(F)F)N1CCS(=O)(=O)CC1 [Compound 272, 4-[4-(2-{5-chloro-2-oxo-1,2-dihydrospiro[indole-3,4′-piperidin]-1′-yl}ethoxy)-2-(trifluoromethyl)benzoyl]-1λ^6-thiomorpholine-1,1-dione]
[1]
  EC50: 58.9 nM
[2]
  EC50: 93.4 nM
[3]
  EC50: 73.2 nM

## CS(=O)(=O)N1CC2(CN(C(=O)c3ccc(OCCN4CCC5(CC4)C(=O)Nc4ccc(Cl)cc45)cc3F)C2)C1 [Compound 273, 5-chloro-1′-[2-(3-fluoro-4-{6-methanesulfonyl-2,6-diazaspiro[3.3]heptane-2-carbonyl}phenoxy)ethyl]-1,2-dihydrospiro[indole-3,4′-piperidin]-2-one]
[1]
  EC50: 64.9 nM
[2]
  EC50: 88.5 nM
[3]
  EC50: 71.6 nM

## C[C@]1(O)C[C@@H](N2C(=O)CCc3cc(OCCN4CCC5(CC4)C(=O)Nc4ccc(C(F)F)cc45)cnc32)C1 [Compound 274, 5-(difluoromethyl)-1′-[2-({7-oxo-8-[(cis)-3-hydroxy-3-methylcyclobutyl]-5,6,7,8-tetrahydro-1,8-naphthyridin-3-yl}oxy)ethyl]-1,2-dihydrospiro[indole-3,4′-piperidin]-2-one]
[1]
  EC50: 59.3 nM
[2]
  EC50: 34 nM
[3]
  EC50: 58.4 nM

## C[C@]1(O)C[C@@H](N2C(=O)CCc3cc(OCCN4CCC5(CC4)C(=O)Nc4ccc(Cl)cc45)cnc32)C1 [Compound 275, 5-chloro-1′-[2-({7-oxo-8-[(cis)-3-hydroxy-3-methylcyclobutyl]-5,6,7,8-tetrahydro-1,8-naphthyridin-3-yl}oxy)ethyl]-1,2-dihydrospiro[indole-3,4′-piperidin]-2-one]
[1]
  EC50: 61.2 nM
[2]
  EC50: 27 nM
[3]
  EC50: 73.6 nM

## CS(=O)(=O)C1(c2ncc(OCCN3CCC4(CC3)C(=O)Nc3ccc(Cl)cc34)cn2)COC1 [Compound 276, 5-chloro-1′-(2-{[2-(3-methanesulfonyloxetan-3-yl)pyrimidin-5-yl]oxy}ethyl)-1,2-dihydrospiro[indole-3,4′-piperidin]-2-one]
[1]
  EC50: 178 nM
[2]
  EC50: 101 nM
[3]
  EC50: 185 nM

## CS(=O)(=O)C1(c2ncc(OCCN3CCC4(CC3)C(=O)Nc3ccc(C#N)cc34)cc2F)CC1 [Compound 283, 1′-(2-{[5-fluoro-6-(1-methanesulfonylcyclopropyl)pyridin-3-yl]oxy}ethyl)-2-oxo-1,2-dihydrospiro[indole-3,4′-piperidine]-5-carbonitrile]
[1]
  EC50: 216 nM
[2]
  EC50: 99 nM
[3]
  EC50: 235 nM

## CC(O)c1ncc(OCCN2CCC3(CC2)C(=O)Nc2ccc(Cl)cc23)cn1 (stereo not drawn) [Compound 284, 5-chloro-1′-(2-{[2-(1-hydroxyethyl)pyrimidin-5-yl]oxy}ethyl)-1,2-dihydrospiro[indole-3,4′-piperidin]-2-one]
[1]
  EC50: 808 nM
[2]
  EC50: 199 nM
[3]
  EC50: 943 nM

## C[C@]1(O)C[C@@H](N2C(=O)OCc3cc(OCCN4CCC5(CC4)C(=O)Nc4ccc(Cl)cc45)cnc32)C1 [Compound 289, 5-chloro-1′-[2-({2-oxo-1-[(cis)-3-hydroxy-3-methylcyclobutyl]-1H,2H,4H-pyrido[2,3-d][1,3]oxazin-6-yl]oxy)ethyl]-1,2-dihydrospiro[indole-3,4′-piperidin]-2-one]
[1]
  EC50: 38.2 nM
[2]
  EC50: 16.7 nM
[3]
  EC50: 51.9 nM

## CC1(O)CN(c2ncc(OCCN3CCC4(CC3)C(=O)Nc3ccc(Cl)cc34)cn2)C1 [Compound 300, 5-chloro-1′-(2-{[2-(3-hydroxy-3-methylazetidin-1-yl)pyrimidin-5-yl]oxy}ethyl)-1,2-dihydrospiro[indole-3,4′-piperidin]-2-one]
[1]
  EC50: 375 nM
[2]
  EC50: 100 nM
[3]
  EC50: 543 nM

## O=C1Nc2ccc(Cl)cc2C12CCN(CCOc1cnc(N3CC(O)C3)nc1)CC2 [Compound 301, 5-chloro-1′-(2-{[2-(3-hydroxyazetidin-1-yl)pyrimidin-5-yl]oxy}ethyl)-1,2-dihydrospiro[indole-3,4′-piperidin]-2-one]
[1]
  EC50: 327 nM
[2]
  EC50: 86 nM
[3]
  EC50: 447 nM

## CS(=O)(=O)C1CN(c2ncc(OCCN3CCC4(CC3)C(=O)Nc3ccc(Cl)cc34)cn2)C1 [Compound 302, 5-chloro-1′-(2-{[2-(3-methanesulfonylazetidin-1-yl)pyrimidin-5-yl]oxy}ethyl)-1,2-dihydrospiro[indole-3,4′-piperidin]-2-one]
[1]
  EC50: 356 nM
[2]
  EC50: 98.1 nM
[3]
  EC50: 498 nM

## CC(C)(O)c1ncc(OCCN2CCC3(CC2)C(=O)Nc2ccc(Cl)cc23)cn1 [Compound 305, 5-chloro-1′-(2-{[2-(2-hydroxypropan-2-yl)pyrimidin-5-yl]oxy}ethyl)-1,2-dihydrospiro[indole-3,4′-piperidin]-2-one]
[1]
  EC50: 187 nM
[2]
  EC50: 85.4 nM
[3]
  EC50: 265 nM

## CC1(O)CN(c2nccc3cc(OCCN4CCC5(CC4)C(=O)Nc4ccc(Cl)cc45)cnc23)C1 [Compound 306, 5-chloro-1′-(2-{[8-(3-hydroxy-3-methylazetidin-1-yl)-1,7-naphthyridin-3-yl]oxy}ethyl)-1,2-dihydrospiro[indole-3,4′-piperidin]-2-one]
[1]
  EC50: 37 nM
[2]
  EC50: 110 nM
[3]
  EC50: 50.8 nM

## O=C1Nc2ccc(Cl)cc2C12CCN(CCOc1cnc3c(N4CC(O)C4)nccc3c1)CC2 [Compound 314, 5-chloro-1′-(2-{[8-(3-hydroxyazetidin-1-yl)-1,7-naphthyridin-3-yl]oxy}ethyl)-1,2-dihydrospiro[indole-3,4′-piperidin]-2-one]
[1]
  EC50: 25.4 nM
[2]
  EC50: 24.3 nM
[3]
  EC50: 34.9 nM
